The values below come from patent US8349837B2, “Pharmaceutical composition comprising racemic aminopterin” (Aminopterin, LLC, priority 2009, dated 2013).

A short description of the series: Pharmacokinetics and oral absorption in Beagle dogs. As to conditions: for Mean Plasma D-isomer: Beagle dogs N=10, oral capsule by gastric placement, 1 mg D-isomer. How it is done: Ten (N=10) Beagle dogs were enrolled in a pharmacokinetic study to examine the oral absorption of 1 tablet of the pure L-isomer tablet formulation (batch 116I0604), 1 mg of the D-isomer admixed with 99 mg microcrystalline cellulose, and 4 tablets of the racemic tablet formulation (batch 157I0907). Each formulation was encapsulated in a hard gelatin capsule and administered by direct gastric placement. Dosing of each formulation was separated by a 7 day washout period. The mean body weight of the ten dogs was 11.3±1.7 (SD) kilograms.
For pharmacokinetic analysis, venous blood samples with EDTA as anticoagulant were taken before each dosing and at 0.5, 1, 1.5, 2, 3, 6, 9 and 12 hours after each dosing. Samples were centrifuged, and the plasma collected and frozen for analysis. There was no urine sampling in this study. Aminopterin in plasma samples was quantitated by an achiral LC/MS assay (Advion Biosciences, Ithaca, N.Y.). The lower limit of quantitation (LLOQ) of the assay was 0.5 ng/ml or 1.2 nM. The amount of L-isomer and D-isomer in plasma samples from animals dosed with the racemate was determined using a chiral LC/MS assay.

The mark [1] stands for this setting: Beagle dogs, oral, isomers given separately.

As for `Nc1nc(N)c2nc(CNc3ccc(C(=O)N[C@H](CCC(=O)O)C(=O)O)cc3)cnc2n1` (single isomer, unassigned) [D-isomer], the “Mean Plasma D-isomer” value reads like this: (collection time 0.0 hr (before dosing)) 0.0000 µM; (collection time 0.5 hr) 0.0050 µM; (collection time 1.0 hr) 0.0117 µM; (collection time 1.5 hr) 0.0150 µM; (collection time 2.0 hr) 0.0152 µM; (collection time 3.0 hr) 0.0106 µM. The “Mean Plasma D-isomer” value was found to be 0.0034 µM (collection time 6.0 hr), 0.0023 µM (collection time 9.0 hr) and 0.0026 µM (collection time 12.0 hr). In addition, under setting [1], the “oral absorption when given separately” value was “efficiently absorbed”. In addition, under setting [1], the “systemic exposure relative to that of the L-isomer (AUC ratio)” value is recorded as “approximately 30%”.

Regarding `Nc1nc(N)c2nc(CNc3ccc(C(=O)N[C@@H](CCC(=O)O)C(=O)O)cc3)cnc2n1` [L-isomer], the “oral absorption when given separately” value under setting [1] is “efficiently absorbed”.
